One series deals with infected mice. Briefly: Curative action in infected mice. The note with it: oral. In kind it is in vivo. As for the experimental part: (§1) Note.- The numerical values in the table denote the amounts per unit body
(§2) weight of the nitrofuran derivatives required for cure when the experimen
(§3) was carried out using mice of body weight of about 20 grams and injecting
(§4) thereinto abdominally the microorganism-containing solutions in amounts o
(§5) 0.2 ml (the microorganism-containing solutions used being those in the
(§6) cases of test microorganisms 1, 3 and 4 in which the microorganism cultur
(§7) liquids were diluted 10^5, 5 and 10^2 times, respectively, and in
(§8) the case of test microorganism 2 that which was concentrated 2 times),
(§9) after which the nitrofuran derivatives suspended in 5% gum arabic were
(§10) forcedly administered orally followed by observation for one week.

For series [1], the system named is Streptococcus hemolyticus, Staphylococcus aureus, Escherichia coli and salmonella species. The conditions noted are these: cited from earlier work.
The subject of a further series is microorganisms. The conditions noted are these: compound (A), background; cited from earlier work.
Series [2] concerns Streptococcus hemolyticus A 089. Briefly: Curative action in infected mice (Table 4). In kind it is in vivo. The conditions noted are these: Streptococcus pyogenes, A089, 168 h, mice infected abdominally, oral in 5% gum arabic, observation one week. As for the experimental part: (§11) Next, in Table 4 are shown the curative actions (ED50 mg/Kg body wt.) and acute toxicities (LD50 mg/kg body wt.) of the typical nitrofuran derivatives of the present invention when used with infected mice.
as §1, §2, §3, §4, §5, §6, §7, §8, §9, §10

Series [3] concerns Staphylococcus aureus 72r. The series is described as follows: Curative action in infected mice (Table 4). In kind it is in vivo. The conditions noted are these: 168 h, mice infected abdominally, oral in 5% gum arabic, observation one week. As for the experimental part:
as §11, §1, §2, §3, §4, §5, §6, §7, §8, §9, §10

The test system of a further series is Escherichia coli K-74. Briefly: Curative action in infected mice (Table 4). In kind it is in vivo. The conditions noted are these: K74, 168 h, mice infected abdominally, oral in 5% gum arabic, observation one week. The method, then: as §11, §1, §2, §3, §4, §5, §6, §7, §8, §9, §10
The subject of series [4] is Salmonella typhimium K-52. The series is described as follows: Curative action in infected mice (Table 4). In kind it is in vivo. The note with it: K52, 168 h, mice infected abdominally, oral in 5% gum arabic, observation one week. As for the experimental part:
as §11, §1, §2, §3, §4, §5, §6, §7, §8, §9, §10

For series [5] the following is noted: in vivo; cited from earlier work.
Series [6] is described as follows: Acute toxicity in mice (Table 4). The note with it: mouse, in vivo, po. The method, then:
as §11

A further series relates to Bacillus Subtilis PCI219. The series is described as follows: Minimum growth inhibiting concentration (Table 1). In kind it is cell-based. The conditions noted are these: TSBI, pH 7.2, 37° C., 48 hours. The method, then:
(§12) For information, the minimum growth inhibiting concentration is a value
(§13) concerning microorganisms cultivated in TSBI the pH of which was adjusted
(§14) to 7.2, each bacteria being incubated at 37° C. for 48 hours.

Series [7] has as its system Staphylococcus aureus 209P. Briefly: Minimum growth inhibiting concentration (Table 1). In kind it is cell-based. The conditions noted are these: TSBI, pH 7.2, 37° C., 48 hours. The method, then: as §12, §13, §14
Series [8] relates to Streptococcus hemolyticus A 089. The series is described as follows: Minimum growth inhibiting concentration (Table 1). In kind it is cell-based. The note with it: Streptococcus pyogenes, A089, TSBI, pH 7.2, 37° C., 48 hours. The method, then: as §12, §13, §14
The test system of series [9] is Pseudomonas aeruguinosa 347. Briefly: Minimum growth inhibiting concentration (Table 1). In kind it is cell-based. The note with it: TSBI, pH 7.2, 37° C., 48 hours. The method, then: as §12, §13, §14
The test system of series [10] is Salmonella pullorum chuyu 114. The series is described as follows: Minimum growth inhibiting concentration (Table 1). The conditions noted are these: Salmonella enterica, TSBI, pH 7.2, 37° C., 48 hours. In kind it is cell-based. As for the experimental part:
as §12, §13, §14

For series [11], the system named is Diplococcus pneumoniae DP-1. Briefly: Minimum growth inhibiting concentration (Table 1). In kind it is cell-based. The conditions noted are these: Streptococcus pneumoniae, DP1, TSBI, pH 7.2, 37° C., 48 hours. As for the experimental part:
as §12, §13, §14

The next series relates to Proteus vulgaris HX-19. Briefly: Minimum growth inhibiting concentration (Table 1). The note with it: HX19, TSBI, pH 7.2, 37° C., 48 hours. In kind it is cell-based. The method, then: as §12, §13, §14
The test system of another series is Escherichia coli O-55. The series is described as follows: Minimum growth inhibiting concentration (Table 1). In kind it is cell-based. The conditions noted are these: O55, TSBI, pH 7.2, 37° C., 48 hours. As for the experimental part: as §12, §13, §14
In series [12] the test system is Klebsiella pneumoniae ST-101. The series is described as follows: Minimum growth inhibiting concentration (Table 1). The conditions noted are these: ST101, TSBI, pH 7.2, 37° C., 48 hours. In kind it is cell-based. As for the experimental part:
as §12, §13, §14

For series [13], the system named is Salmonella enteritidis 1891. Briefly: Minimum growth inhibiting concentration (Table 1). The conditions noted are these: Salmonella enterica, TSBI, pH 7.2, 37° C., 48 hours. In kind it is cell-based. The method, then:
as §12, §13, §14

The structures appear in SMILES notation. ≈ marks a conversion by molar mass, not a printed value. Where only a bound is given, the exact number is not on record here.

`NC(=O)c1ccc(C=Cc2ccc([N+](=O)[O-])o2)cc1` [Compound A, Para-[2-(5'-nitro-2'-furyl)-vinyl]-benzoylamine, reference compound]: the “Curative effect in infected mice (in words)” value in the series with infected mice is on record as “no curative effects were noted”. Moreover, in [1], the “Antimicrobial activity in vitro (in words)” value is given as “extremely superior antimicrobial activity in vitro”. For the same compound, the “Concentration inhibiting the growth” value in [1] (in vitro, Streptococcus hemolyticus, Staphylococcus aureus, Escherichia coli and salmonella species) is reported as 0.1-3 micrograms per milliliter. Further, in the series on microorganisms, the “In vivo antimicrobial activity” value is on record as “not observed”. Further, the ED50 (in [2]; in series [3]; with Escherichia coli K-74; in series [4]) was over 400 mg/kg throughout. Also, the Concentration in blood entry in series [5] is “can scarcely be noted”. The same compound showed an LD50 in series [6] of over 400 mg/kg.

Regarding `O=C(NCCO)c1cccc(C=Cc2ccc([N+](=O)[O-])o2)c1` [Example 2, 2-Meta-[2'-(5"-nitro-2"-furyl)-vinyl]-benzoylamino-ethanol], the ED50 is 34 mg/kg in [2], 37 mg/kg in series [3], 45 mg/kg with Escherichia coli K-74 and 150 mg/kg in [4]. In addition, the MIC is under 0.19 mg/L against Bacillus Subtilis PCI219; 0.78 mg/L (≈ 2.58 µM) in [7]; under 0.19 mg/L in series [8]; 25 mg/L (≈ 82.7 µM) in series [9]; 3.13 mg/L (≈ 10.4 µM) in series [10]; under 0.19 mg/L in series [11]. Besides, the MIC against Proteus vulgaris HX-19 stood at 6.25 mg/L (≈ 20.7 µM); in the series with Escherichia coli O-55 it was 3.13 mg/L (≈ 10.4 µM); in [12], 1.56 mg/L (≈ 5.16 µM); in series [13] it was 0.78 mg/L (≈ 2.58 µM). The LD50 in series [6] was determined as 2000 mg/kg.

Consider `O=C(NCCOCCO)c1ccc(C=Cc2ccc([N+](=O)[O-])o2)cc1` [Example 11, 2-Para-[2'-(5"-nitro-2"-furyl)-vinyl]-benzoylaminoethoxy-2-ethanol], for which the ED50 turned out to be 13 mg/kg in [2], 21 mg/kg in series [3], 29 mg/kg in the series on Escherichia coli K-74 and 100 mg/kg in series [4]. Further, the MIC is under 0.19 mg/L against Bacillus Subtilis PCI219; 1.56 mg/L (≈ 4.5 µM) in series [7]; under 0.19 mg/L in [8]; 25 mg/L (≈ 72.2 µM) in series [9]; 6.25 mg/L (≈ 18 µM) in series [10]; 0.78 mg/L (≈ 2.25 µM) in [11]. In addition, the MIC in the series with Proteus vulgaris HX-19 came out at 6.25 mg/L (≈ 18 µM); against Escherichia coli O-55, 6.25 mg/L (≈ 18 µM); in series [12] it was 3.13 mg/L (≈ 9.04 µM); in [13] it was 1.56 mg/L (≈ 4.5 µM). Also, in [6], the LD50 was determined as 1850 mg/kg.

Consider `O=C(NCCCO)c1ccc(C=Cc2ccc([N+](=O)[O-])o2)cc1` [Example 4, 3-Para-[2'-(5"-nitro-2"-furyl)-vinyl]-benzoylamino-1-propanol], for which the figures for the ED50 in series [2], in series [3] and in [4] were 24 mg/kg, 50 mg/kg and 125 mg/kg, respectively. The MIC is under 0.19 mg/L in the series on Bacillus Subtilis PCI219; 0.78 mg/L (≈ 2.47 µM) in [7]; under 0.19 mg/L in series [8]; over 25 mg/L in [9]; 6.25 mg/L (≈ 19.8 µM) in series [10]; 6.25 mg/L (≈ 19.8 µM) in series [11]. The MIC against Proteus vulgaris HX-19 was found to be 6.25 mg/L (≈ 19.8 µM); in the series with Escherichia coli O-55, 3.13 mg/L (≈ 9.9 µM); in [12] it was 3.13 mg/L (≈ 9.9 µM); in series [13], 3.13 mg/L (≈ 9.9 µM). Further, the LD50 in [6] is 1900 mg/kg.

Turning to `NC(=O)C(CO)NC(=O)c1ccc(C=Cc2ccc([N+](=O)[O-])o2)cc1` (stereo not drawn) [Example 19, Para-[2-(5'-nitro-2'-furyl)-vinyl]-N-benzoylserine amide], the ED50 was determined as 46 mg/kg in [2] and 65 mg/kg in series [3]. Also, the MIC against Bacillus Subtilis PCI219 is under 0.19 mg/L; in [7], 1.56 mg/L (≈ 4.52 µM); in series [8], under 0.19 mg/L; in series [9], 25 mg/L (≈ 72.4 µM); in series [10], 6.25 mg/L (≈ 18.1 µM); in [11], 0.78 mg/L (≈ 2.26 µM). The MIC against Proteus vulgaris HX-19 worked out at 6.25 mg/L (≈ 18.1 µM); in the series with Escherichia coli O-55, 12.5 mg/L (≈ 36.2 µM); in [12] it was 6.25 mg/L (≈ 18.1 µM); in series [13], 1.56 mg/L (≈ 4.52 µM). In addition, the LD50 in [6] was over 2000 mg/kg.

`NC(=O)CNC(=O)c1ccc(C=Cc2ccc([N+](=O)[O-])o2)cc1` [Example 16, Para-[2-(5'-nitro-2'-furyl)-vinyl]-N-benzoylglycine amide]: the ED50 was found to be 34 mg/kg in series [2], 30 mg/kg in series [3], 34 mg/kg with Escherichia coli K-74 and 110 mg/kg in series [4]. Besides, the MIC against Bacillus Subtilis PCI219 is under 0.19 mg/L; in [7], 0.78 mg/L (≈ 2.47 µM); in series [8], under 0.19 mg/L; in series [9], over 25 mg/L; in [10] it was 3.13 mg/L (≈ 9.93 µM); in series [11], 0.39 mg/L (≈ 1.24 µM). The MIC worked out at 3.13 mg/L (≈ 9.93 µM) against Proteus vulgaris HX-19, 3.13 mg/L (≈ 9.93 µM) in the series on Escherichia coli O-55, 3.13 mg/L (≈ 9.93 µM) in [12] and 0.78 mg/L (≈ 2.47 µM) in series [13]. Also, the LD50 in series [6] was determined as 2000 mg/kg.

As for `CC(O)CNC(=O)c1ccc(C=Cc2ccc([N+](=O)[O-])o2)cc1` (stereo not drawn) [Example 5, 3-Para[2'-(5"-nitro-2"-furyl)-vinyl]-benzoylamino-2-propanol], the ED50 in series [2] was determined as 19 mg/kg; in [3] it was 37 mg/kg; in series [4], 110 mg/kg. For the same compound, the MIC is under 0.19 mg/L against Bacillus Subtilis PCI219; 0.78 mg/L (≈ 2.47 µM) in series [7]; 0.19 mg/L (≈ 0.601 µM) in series [8]; over 25 mg/L in series [9]; 6.25 mg/L (≈ 19.8 µM) in series [10]; 0.78 mg/L (≈ 2.47 µM) in series [11]. In addition, the MIC against Proteus vulgaris HX-19 was determined as 3.13 mg/L (≈ 9.9 µM); with Escherichia coli O-55, 6.25 mg/L (≈ 19.8 µM); in series [12], 3.13 mg/L (≈ 9.9 µM); in series [13], 1.56 mg/L (≈ 4.93 µM). Further, the LD50 in series [6] is 1700 mg/kg.
